Measured values reported in patent US20180099931A1 (AbbVie S.à.r.l., priority 2016, published 2018).
Where two headings read alike, the source gives them in different places.

Target: T1, F508delCFTR (Homo sapiens, UniProt P13569, DEL508-508)
T1 construct: expressed in transfected cells; host or cells: CFBE41o- human lung-derived epithelial cells (CFBE4lo-F508delCFTR-HRP), doxycycline-inducible
Assay: Cell Surface Expression-Horse Radish Peroxidase (CSE-HRP) Assay;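 on Maximum % activity (with co-corrector): co-corrector and positive control are both the same reference corrector at 2 µM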;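 on Maximum % activity (without co-corrector): percent of the 2 µM on-plate positive control corrector response above DMSO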
Type: cell-based
Settings: for Emax / Maximum % activity (with co-corrector): maximum at any tested concentration, normalized to on-plate positive control; for Emax: read-out: Maximum % activity (without co-corrector)

[1] = test compound without co-corrector
[2] = test compound without co-corrector, read-out: EC50 (without co-corrector)
[3] = with co-corrector (2 μM of 3-[(2R,4R)-4-({[1-(2,2-difluoro-1,3-benzodioxol-5-yl)cyclopropyl]carbonyl}amino)-7-methoxy-3,4-dihydro-2H-chromen-2-yl]benzoic acid)
[4] = with co-corrector (2 μM of 3-[(2R,4R)-4-({[1-(2,2-difluoro-1,3-benzodioxol-5-yl)cyclopropyl]carbonyl}amino)-7-methoxy-3,4-dihydro-2H-chromen-2-yl]benzoic acid), read-out: EC50 (with co-corrector)
[5] = CSE-HRP, test compound without co-corrector, read-out: EC50 (without co-corrector)
[6] = CSE-HRP, with co-corrector (2 μM of 3-[(2R,4R)-4-({[1-(2,2-difluoro-1,3-benzodioxol-5-yl)cyclopropyl]carbonyl}amino)-7-methoxy-3,4-dihydro-2H-chromen-2-yl]benzoic acid), read-out: EC50 (with co-corrector)
[7] = CSE-HRP, with co-corrector (2 μM)

T1 sequence (P13569 with tags, fused parts or gaps DEL508-508): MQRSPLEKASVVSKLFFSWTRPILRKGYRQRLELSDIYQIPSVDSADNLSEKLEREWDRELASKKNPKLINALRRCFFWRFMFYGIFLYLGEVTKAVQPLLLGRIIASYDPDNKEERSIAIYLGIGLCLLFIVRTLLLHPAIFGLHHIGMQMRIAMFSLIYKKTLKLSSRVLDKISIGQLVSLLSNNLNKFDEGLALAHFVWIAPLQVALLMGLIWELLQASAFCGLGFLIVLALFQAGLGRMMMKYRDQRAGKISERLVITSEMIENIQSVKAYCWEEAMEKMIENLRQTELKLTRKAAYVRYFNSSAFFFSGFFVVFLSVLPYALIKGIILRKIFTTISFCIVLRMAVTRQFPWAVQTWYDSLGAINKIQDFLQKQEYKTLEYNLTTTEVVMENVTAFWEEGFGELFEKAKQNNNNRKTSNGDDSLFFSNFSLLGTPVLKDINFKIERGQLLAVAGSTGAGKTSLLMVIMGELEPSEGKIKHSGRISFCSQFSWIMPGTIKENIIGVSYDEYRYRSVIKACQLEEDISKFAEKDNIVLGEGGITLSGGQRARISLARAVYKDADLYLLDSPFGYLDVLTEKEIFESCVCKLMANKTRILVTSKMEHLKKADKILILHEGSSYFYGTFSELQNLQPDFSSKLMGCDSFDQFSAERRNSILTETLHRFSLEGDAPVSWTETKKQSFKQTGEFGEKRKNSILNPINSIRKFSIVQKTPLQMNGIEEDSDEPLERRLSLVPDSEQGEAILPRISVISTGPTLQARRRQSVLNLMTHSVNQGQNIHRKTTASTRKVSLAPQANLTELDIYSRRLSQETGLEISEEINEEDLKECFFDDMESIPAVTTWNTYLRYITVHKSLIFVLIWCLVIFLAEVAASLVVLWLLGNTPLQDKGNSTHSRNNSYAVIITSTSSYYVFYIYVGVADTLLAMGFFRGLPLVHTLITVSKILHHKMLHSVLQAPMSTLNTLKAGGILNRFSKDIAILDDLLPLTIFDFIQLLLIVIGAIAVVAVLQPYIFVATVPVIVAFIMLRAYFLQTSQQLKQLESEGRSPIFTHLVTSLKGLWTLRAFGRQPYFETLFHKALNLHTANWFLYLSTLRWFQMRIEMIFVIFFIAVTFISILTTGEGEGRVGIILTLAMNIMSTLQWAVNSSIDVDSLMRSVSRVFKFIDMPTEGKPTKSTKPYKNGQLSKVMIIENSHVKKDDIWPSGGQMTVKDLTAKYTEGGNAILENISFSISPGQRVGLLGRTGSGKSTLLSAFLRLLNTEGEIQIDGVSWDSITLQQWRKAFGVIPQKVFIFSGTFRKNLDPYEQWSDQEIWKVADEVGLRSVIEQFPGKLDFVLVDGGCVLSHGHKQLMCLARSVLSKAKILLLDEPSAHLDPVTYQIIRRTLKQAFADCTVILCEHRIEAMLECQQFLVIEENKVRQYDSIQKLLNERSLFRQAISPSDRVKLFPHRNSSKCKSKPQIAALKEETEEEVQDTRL

COc1ccc(C(C)(C)C)cc1CN[C@H]1[C@H](C(C)(C)C)[C@@H](C(=O)O)N(C(=O)C2CC2)[C@H]1c1ccccc1 [II-333]
Emax [1]: > 200%
EC50 [2]: 1000 to 10000 nM
Maximum % activity (with co-corrector) [3]: +++ (≥350)
EC50 [4]: 1000 to 10000 nM

CC(C)(C)[C@H]1[C@H](Nc2cc(C#N)cnc2Cl)[C@H](c2ccccc2)N(C(=O)C2CCCCC2)[C@@H]1C(=O)O [II-145]
EC50 [5]: 1000 to 10000 nM
EC50 [6]: 1000 to 10000 nM
Maximum % activity (with co-corrector) [7]: +++ (≥350)
Emax (CSE-HRP, without co-corrector): 100 to 200%

COc1cc(C(F)(F)F)ccc1CN[C@H]1[C@H](C(C)(C)C)[C@@H](C(=O)O)N(C(=O)OCC(C)C)[C@H]1c1ccccc1 [II-161]
EC50 [5]: 1000 to 10000 nM
EC50 [6]: < 1000 nM
Maximum % activity (with co-corrector) [7]: +++ (≥350)
Emax (CSE-HRP, without co-corrector): 100 to 200%

COc1ncc(Cc2cccc(C#N)c2)cc1CN[C@H]1[C@H](C(C)(C)C)[C@@H](C(=O)O)N(C(=O)C2CCCCC2)[C@H]1c1ccccc1 [Example I-77]
EC50 [2]: 1000 to 10000 nM
EC50 [4]: 1000 to 10000 nM
Maximum % activity (with co-corrector) (with co-corrector (2 μM)): +++ (≥350)
Emax (without co-corrector): 100 to 200%

COc1ccc(C(C)(C)C)cc1CN[C@H]1[C@H](C(C)(C)C)[C@@H](C(=O)O)N(C(=O)Cc2cccc(C)c2)[C@H]1c1ccccc1 [II-203]
EC50 [5]: 1000 to 10000 nM
EC50 [6]: < 1000 nM
Maximum % activity (with co-corrector) [7]: +++ (≥350)
Emax (CSE-HRP, without co-corrector): 100 to 200%

COc1ncc(C(F)(F)F)cc1N[C@H]1[C@H](C(C)(C)C)[C@@H](C(=O)O)N(C(=O)[C@@H]2CCCCO2)[C@H]1c1cccnc1N(C)C [Example I-215]
EC50 [2]: > 10000 nM
EC50 [4]: 1000 to 10000 nM
Maximum % activity (with co-corrector) (with co-corrector (2 μM)): ++ (≥150 and <350)
Emax (without co-corrector): < 100%

CC(C)(C)[C@H]1[C@H](NCc2cc(Cl)ccc2OC(F)F)[C@H](c2ccccc2)N(C(=O)C2CCCCC2)[C@@H]1C(=O)O [II-107]
EC50 [5]: < 1000 nM
EC50 [6]: 1000 to 10000 nM
Maximum % activity (with co-corrector) [7]: +++ (≥350)
Emax (CSE-HRP, without co-corrector): < 100%

COc1ccc(C(C)(C)C)cc1CN[C@H]1[C@H](C(C)(C)C)[C@@H](C(=O)O)N(C(=O)OCc2ccccc2Cl)[C@H]1c1ccccc1 [Example I-154]
EC50 [2]: < 1000 nM
EC50 [4]: < 1000 nM
Maximum % activity (with co-corrector) (with co-corrector (2 μM)): +++ (≥350)
Emax (without co-corrector): 100 to 200%

Cc1cc(C(F)(F)F)cc(N[C@@H]2[C@@H](C(C)(C)C)[C@H](C(=O)O)N(C(=O)C3CCCCC3)[C@@H]2c2ccccc2)n1 [Example 3, (2R,3R,4R,5R)-3-tert-butyl-1-(cyclohexanecarbonyl)-4-{[6-methyl-4-(trifluoromethyl)pyridin-2-yl]amino}-5-phenylpyrrolidine-2-carboxylic acid]
EC50 [2]: 1000 to 10000 nM
EC50 [4]: 1000 to 10000 nM
Maximum % activity (with co-corrector) (with co-corrector (2 μM)): ++ (≥150 and <350)
Emax (without co-corrector): < 100%

CC(C)(C)[C@H]1[C@H](NCc2cc(Cl)cc(Cl)c2)[C@H](c2ccccc2)N(C(=O)C2CCCCC2)[C@@H]1C(=O)O [II-111]
EC50 [5]: 1000 to 10000 nM
EC50 [6]: 1000 to 10000 nM
Maximum % activity (with co-corrector) [7]: ++ (≥150 and <350)
Emax (CSE-HRP, without co-corrector): < 100%

COc1ccc(C2CCC2)cc1CN[C@H]1[C@H](C(C)(C)C)[C@@H](C(=O)O)N(C(=O)C2CCCCC2)[C@H]1c1ccccc1 [Example I-68]
EC50 [2]: < 1000 nM
EC50 [4]: < 1000 nM
Maximum % activity (with co-corrector) (with co-corrector (2 μM)): +++ (≥350)
Emax (without co-corrector): > 200%

COc1nc(C(C)(C)C)ccc1CN[C@H]1[C@H](C(C)(C)C)[C@@H](C(=O)O)N(C(=O)[C@H](OC)c2ccccc2)[C@H]1c1ccccc1 [II-433]
Emax [1]: 100 to 200%
EC50 [2]: < 1000 nM
Maximum % activity (with co-corrector) [3]: +++ (≥350)
EC50 [4]: < 1000 nM

COc1ccc(C(C)(C)C)cc1CN[C@H]1[C@H](C(C)(C)C)[C@@H](C(=O)O)N(C(=O)Cc2c(F)cccc2F)[C@H]1c1ccccc1 [II-201]
EC50 [5]: < 1000 nM
EC50 [6]: < 1000 nM
Maximum % activity (with co-corrector) [7]: +++ (≥350)
Emax (CSE-HRP, without co-corrector): > 200%

COc1cc(C(F)(F)F)ccc1CN[C@@H]1[C@@H](C(C)(C)C)[C@H](C(=O)O)N(C(=O)C2CCCCC2)[C@@H]1c1cccnc1N(C)C (racemic) [II-51]
EC50 [5]: 1000 to 10000 nM
EC50 [6]: 1000 to 10000 nM
Maximum % activity (with co-corrector) [7]: +++ (≥350)
Emax (CSE-HRP, without co-corrector): 100 to 200%

COc1ccc(C(F)(F)F)cc1CN[C@H]1[C@H](C(C)(C)C)[C@@H](C(=O)O)N(C(=O)OC(C)C)[C@H]1c1cccnc1N(C)C [II-551]
Emax [1]: > 200%
EC50 [2]: 1000 to 10000 nM
Maximum % activity (with co-corrector) [3]: +++ (≥350)
EC50 [4]: 1000 to 10000 nM

COc1cc(C(F)(F)F)ccc1CN[C@H]1[C@H](C(C)(C)C)[C@@H](C(=O)O)N(C(=O)[C@@H]2CCCC(F)(F)C2)[C@H]1c1ccccc1 [Example 75, (2S,3S,4S,5S)-3-tert-butyl-1-[(1R)-3,3-difluorocyclohexane-1-carbonyl]-4-({[2-methoxy-4-(trifluoromethyl)phenyl]methyl}amino)-5-phenylpyrrolidine-2-carboxylic acid]
EC50 [2]: 1000 to 10000 nM
EC50 [4]: < 1000 nM
Maximum % activity (with co-corrector) (with co-corrector (2 μM)): +++ (≥350)
Emax (without co-corrector): > 200%

COc1ccc(C23CC(C2)C3)cc1CN[C@H]1[C@H](C(C)(C)C)[C@@H](C(=O)O)N(C(=O)C2CCCCC2)[C@H]1c1cccnc1OC [II-486]
Emax [1]: > 200%
EC50 [2]: 1000 to 10000 nM
Maximum % activity (with co-corrector) [3]: +++ (≥350)
EC50 [4]: < 1000 nM

COc1ccc(C(C)(C)C)cc1CN[C@H]1[C@H](C(C)(C)C)[C@@H](C(=O)O)N(C(=O)C2CC2c2cccs2)[C@H]1c1ccccc1 (stereo partly drawn) [III-193]
Emax [1]: > 200%
EC50 [2]: < 1000 nM
EC50 [4]: < 1000 nM
Maximum % activity (with co-corrector) (with co-corrector (2 μM)): +++ (≥350)

COc1cccc(-c2cnc(OC)c(CN[C@H]3[C@H](C(C)(C)C)[C@@H](C(=O)O)N(C(=O)C4CCCCC4)[C@H]3c3ccccc3)c2)c1 [Example II-341, (2S,3S,4S,5S)-3-(tert-butyl)-1-(cyclohexanecarbonyl)-4-(((2-methoxy-5-(3-methoxyphenyl)pyridin-3-yl)methyl)amino)-5-phenylpyrrolidine-2-carboxylic acid]
Emax [1]: 100 to 200%
EC50 [2]: < 1000 nM
Maximum % activity (with co-corrector) [3]: +++ (≥350)
EC50 [4]: < 1000 nM

CCOc1ccc(CN[C@H]2[C@H](C(C)(C)C)[C@@H](C(=O)O)N(C(=O)C3CCCCC3)[C@H]2c2ccccc2)c(C)c1 [II-119]
EC50 [5]: 1000 to 10000 nM
EC50 [6]: 1000 to 10000 nM
Maximum % activity (with co-corrector) [7]: ++ (≥150 and <350)
Emax (CSE-HRP, without co-corrector): < 100%

COc1cc(C(F)(F)F)ccc1CN[C@H]1[C@H](C(C)(C)C)[C@@H](C(=O)O)N(C(=O)C2CCCO2)[C@H]1c1ccccc1 (mixture of isomers) [II-60]
EC50 [5]: 1000 to 10000 nM
EC50 [6]: 1000 to 10000 nM
Maximum % activity (with co-corrector) [7]: +++ (≥350)
Emax (CSE-HRP, without co-corrector): 100 to 200%

COc1ccc(C(C)(C)C)cc1CN[C@H]1[C@H](C(C)(C)C)[C@@H](C(=O)O)N(C(=O)C2CC=CC2)[C@H]1c1ccccc1 [II-321]
Emax [1]: > 200%
EC50 [2]: 1000 to 10000 nM
Maximum % activity (with co-corrector) [3]: +++ (≥350)
EC50 [4]: < 1000 nM

COc1ccc(C(C)(C)C)cc1CN[C@H]1[C@H](C(C)(C)C)[C@@H](C(=O)O)N(C(=O)C2CCCCC2)[C@H]1c1ccccc1C(C)C [Example I-185]
EC50 [2]: < 1000 nM
EC50 [4]: < 1000 nM
Maximum % activity (with co-corrector) (with co-corrector (2 μM)): +++ (≥350)
Emax (without co-corrector): > 200%

COc1ccc(C23CC(C2)C3)cc1CN[C@H]1[C@H](C(C)(C)C)[C@@H](C(=O)O)N(C(=O)OC(C)C)[C@H]1c1ccccc1C(C)C [III-220]
Emax [1]: > 200%
EC50 [2]: < 1000 nM
EC50 [4]: < 1000 nM
Maximum % activity (with co-corrector) (with co-corrector (2 μM)): +++ (≥350)

COc1ccc(C(C)(C)C)cc1CN[C@H]1[C@H](C(C)(C)C)[C@@H](C(=O)O)N(C(=O)N(C(C)C)C(C)C)[C@H]1c1ccccc1 [III-217]
Emax [1]: < 100%
EC50 [2]: > 10000 nM
EC50 [4]: 1000 to 10000 nM
Maximum % activity (with co-corrector) (with co-corrector (2 μM)): + (<150)

COc1ncc(C(F)(F)F)cc1CN[C@H]1[C@H](C(C)(C)C)[C@@H](C(=O)O)N(C(=O)C2CCC2)[C@H]1c1ccccc1C(C)C [Example I-273]
EC50 [5]: 1000 to 10000 nM
EC50 [6]: < 1000 nM
Maximum % activity (with co-corrector) [7]: +++ (≥350)
Emax (CSE-HRP, without co-corrector): > 200%

CC(C)OC(=O)N1[C@H](C(=O)O)[C@@H](C(C)(C)C)[C@H](NCCc2ccccc2)[C@@H]1c1ccccc1 [Example I-263]
EC50 [5]: 1000 to 10000 nM
EC50 [6]: 1000 to 10000 nM
Maximum % activity (with co-corrector) [7]: ++ (≥150 and <350)
Emax (CSE-HRP, without co-corrector): < 100%

COc1ccc(C(F)(F)F)cc1CN[C@H]1[C@H](C(C)(C)C)[C@@H](C(=O)O)N(C(=O)C2CCCCC2)[C@H]1c1ncccc1Cl [III-164]
Emax [1]: < 100%
EC50 [2]: > 10000 nM
EC50 [4]: 1000 to 10000 nM
Maximum % activity (with co-corrector) (with co-corrector (2 μM)): ++ (≥150 and <350)

COc1ccc(CC(C)C)cc1CN[C@H]1[C@H](C(C)(C)C)[C@@H](C(=O)O)N(C(=O)C2CCCCC2)[C@H]1c1ccccc1 [Example I-94]
EC50 [2]: < 1000 nM
EC50 [4]: < 1000 nM
Maximum % activity (with co-corrector) (with co-corrector (2 μM)): +++ (≥350)
Emax (without co-corrector): > 200%

COc1ccc(C23CC(C2)C3)cc1CN[C@H]1[C@H](C(C)(C)C)[C@@H](C(=O)O)N(C(=O)C2CCCCC2)[C@H]1c1cccnc1N(C)C [II-520]
Emax [1]: > 200%
EC50 [2]: 1000 to 10000 nM
Maximum % activity (with co-corrector) [3]: +++ (≥350)
EC50 [4]: < 1000 nM
